Among the targets are hTNALP (F104, Q109) (Homo sapiens, UniProt P05186, E125F/G126Q); hTNALP A434 (Homo sapiens, UniProt P05186, H451A); hTNALP A166 (Homo sapiens, UniProt P05186, D183A); hTNALP F108 (Homo sapiens, UniProt P05186, E125F); hTNALP (Homo sapiens, UniProt P05186); hTNALP Q434 (Homo sapiens, UniProt P05186, H451Q); hTNALP B434 (Homo sapiens, UniProt P05186, H451E); hTNALP A168 (Homo sapiens, UniProt P05186, D185A); hTNALP A120 (Homo sapiens, UniProt P05186, S137A); hTNALP N120 (Homo sapiens, UniProt P05186, S137N); hTNALP A433 (Homo sapiens, UniProt P05186, R450A); hTNALP A108 (Homo sapiens, UniProt P05186, E125A); hTNALP (D433, E434) (Homo sapiens, UniProt P05186, H451E/R450D).

Holding throughout (experiment): biochemical

Sequence of hTNALP Q434 (P05186 18-501 H451Q): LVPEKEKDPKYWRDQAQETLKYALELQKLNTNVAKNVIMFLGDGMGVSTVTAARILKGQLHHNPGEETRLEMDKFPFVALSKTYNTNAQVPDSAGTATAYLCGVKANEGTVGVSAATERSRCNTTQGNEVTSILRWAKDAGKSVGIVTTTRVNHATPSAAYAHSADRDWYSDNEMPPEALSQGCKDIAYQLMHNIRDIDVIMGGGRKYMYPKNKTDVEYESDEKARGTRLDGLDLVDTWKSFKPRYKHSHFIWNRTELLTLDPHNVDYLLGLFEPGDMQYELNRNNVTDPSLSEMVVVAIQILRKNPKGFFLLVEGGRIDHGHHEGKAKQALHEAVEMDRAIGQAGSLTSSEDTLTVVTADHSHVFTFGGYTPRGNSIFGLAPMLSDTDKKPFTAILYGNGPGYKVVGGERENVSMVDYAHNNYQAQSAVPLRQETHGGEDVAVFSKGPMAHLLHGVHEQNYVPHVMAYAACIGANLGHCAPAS
Sequence of hTNALP A108 (P05186 18-501 E125A): as the sequence (P05186 18-501 H451Q) above, with E108A, Q434H counted along it
Sequence of hTNALP A434 (P05186 18-501 H451A): as the sequence (P05186 18-501 H451Q) above, with Q434A counted along it
Sequence of hTNALP A433 (P05186 18-501 R450A): as the sequence (P05186 18-501 H451Q) above, with R433A, Q434H counted along it
Sequence of hTNALP A168 (P05186 18-501 D185A): as the sequence (P05186 18-501 H451Q) above, with D168A, Q434H counted along it
Sequence of hTNALP N120 (P05186 18-501 S137N): as the sequence (P05186 18-501 H451Q) above, with S120N, Q434H counted along it
Sequence of hTNALP B434 (P05186 whole entry H451E): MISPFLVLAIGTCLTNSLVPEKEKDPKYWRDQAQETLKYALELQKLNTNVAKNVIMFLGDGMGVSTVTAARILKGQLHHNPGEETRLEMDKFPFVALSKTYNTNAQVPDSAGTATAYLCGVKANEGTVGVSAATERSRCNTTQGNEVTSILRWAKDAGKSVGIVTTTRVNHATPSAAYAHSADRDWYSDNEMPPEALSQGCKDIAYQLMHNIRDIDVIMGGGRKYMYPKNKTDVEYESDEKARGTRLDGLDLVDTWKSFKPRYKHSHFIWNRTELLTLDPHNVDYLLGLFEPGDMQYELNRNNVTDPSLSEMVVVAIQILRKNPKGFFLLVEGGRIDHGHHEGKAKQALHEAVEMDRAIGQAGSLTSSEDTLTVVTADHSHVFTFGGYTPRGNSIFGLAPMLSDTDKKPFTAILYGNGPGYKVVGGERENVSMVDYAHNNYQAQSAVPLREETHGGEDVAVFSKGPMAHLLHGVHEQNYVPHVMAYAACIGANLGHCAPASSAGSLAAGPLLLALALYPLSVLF
Sequence of hTNALP A166 (P05186 18-501 D183A): as the sequence (P05186 18-501 H451Q) above, with D166A, Q434H counted along it
Sequence of hTNALP A120 (P05186 18-501 S137A): as the sequence (P05186 18-501 H451Q) above, with S120A, Q434H counted along it
Sequence of hTNALP F108 (P05186 18-501 E125F): as the sequence (P05186 18-501 H451Q) above, with E108F, Q434H counted along it
Sequence of hTNALP (F104, Q109) (P05186 whole entry E125F/G126Q): as the sequence (P05186 whole entry H451E) above, with E125F, G126Q, E451H counted along it
Sequence of hTNALP (P05186 18-501): as the sequence (P05186 18-501 H451Q) above, with Q434H counted along it
Sequence of hTNALP (D433, E434) (P05186 18-501 R450D/H451E): as the sequence (P05186 18-501 H451Q) above, with R433D, Q434E counted along it

For orientation: Ki means the dissociation constant of the complex between target and ligand, obtained from inhibition or displacement. Take `N[C@@H](Cc1ccccc1)C(=O)O` [L-Phe, L-phenylalanine]: the Ki turned out to be 2.1 ± 0.4 mM at hTNALP (F104, Q109); 21 ± 6 mM on hTNALP A434; 24 ± 4 mM on hTNALP A166; 3.7 ± 0.5 mM on hTNALP F108; 19 ± 6 mM on hTNALP; 9.8 ± 1 mM at hTNALP Q434. Also, the Ki on hTNALP B434 stood at 43 ± 8 mM; at hTNALP A168, 30 ± 4 mM; at hTNALP A120, 24 ± 2 mM; at hTNALP N120 it was 23 ± 8 mM; at hTNALP A433, 31 ± 3 mM; at hTNALP A108, 27 ± 4 mM.
With `N=C(N)NCCCC[C@H](N)C(=O)O` [L-hArg, L-homoarginine], the Ki on hTNALP (F104, Q109) was 15 ± 2 mM; on hTNALP A434, 1.5 ± 0.1 mM; at hTNALP A166, 1.6 ± 0.3 mM; at hTNALP F108 it was 48 ± 11 mM; on hTNALP, 1.4 ± 0.1 mM; on hTNALP Q434, 2 ± 0.1 mM. For the same compound, the Ki amounted to 13 ± 1.6 mM at hTNALP (D433, E434); 6.8 ± 0.5 mM at hTNALP B434; 1.5 ± 0.3 mM at hTNALP A168; 1.4 ± 0.1 mM on hTNALP A120; 1.3 ± 0.1 mM on hTNALP N120; 1.6 ± 0.2 mM on hTNALP A433. This compound came in with a Ki at hTNALP A108 of 14 ± 1 mM.

Values taken from patent publication US20090142347A1, “Tissue-Nonspecific Alkaline Phosphatase (TNAP): a Therapeutic Target for Arterial Calcification” (THE BURNHAM INSTITUTE FOR MEDICAL RESEARCH, priority 2004, published 2009).
